Activity calls are given as the source filed them. No cut-off for these calls is given here.
Experiments:
Vero [1] = assay: Cytotoxicity against african green monkey Vero cells at => 5000 ng/mL; type: cell-based; conditions: chlorocebus sabaeus
Plasmodium falciparum [2] = assay: Antiplasmodial activity against chloroquine-resistant Plasmodium falciparum W2 infected in human erythrocytes assessed as reduction in parasitaemia after 48 hrs by FACS; type: functional, organism-based; conditions: W2, 48 h
Plasmodium falciparum [3] = assay: Antiplasmodial activity against chloroquine-resistant Plasmodium falciparum W2 infected in human erythrocytes assessed as reduction in parasitaemia up to 10 uM after 48 hrs by FACS; type: functional, organism-based
Vero [4] = assay: Cytotoxicity against african green monkey Vero cells at 1200 ng/mL; type: cell-based; conditions: chlorocebus sabaeus

SMILES | IC50 (Plasmodium falciparum [2]) [nM] | also measured
CCO[C@H]1O[C@@H]2[C@@H]3[C@@H](C)[C@@H](OCc4ccc(OC)cc4)C[C@@H]3[C@]3(C)C=C[C@]2(OO3)[C@H]1C | 13 | Activity (Vero [1]): Non-toxic
COc1ccc(CO[C@H]2C[C@H]3[C@@H]([C@H]2C)[C@H]2OC[C@H](C)[C@@]24C=C[C@]3(C)OO4)cc1 | 230 | 
COc1ccc(CO[C@H]2C[C@H]3[C@@H]([C@H]2C)[C@H]2OC(=O)[C@H](C)[C@@]24C=C[C@]3(C)OO4)cc1 | 290 | Activity (Vero [1]): Non-toxic
CCO[C@@H]1O[C@@H]2[C@@H]3[C@@H](C)[C@@H](OCc4ccc(OC)cc4)C[C@@H]3[C@]3(C)CC[C@]2(OO3)[C@H]1C | 3400 | 
C[C@@H]1[C@H]2[C@H]3OC(=O)[C@H](C)[C@@]34C=C[C@](C)(OO4)[C@H]2C[C@@H]1O | 1050 | 
CCO[C@@H]1O[C@@H]2[C@@H]3[C@@H](C)[C@@H](OCc4ccc(OC)cc4)C[C@@H]3[C@]3(C)C=C[C@]2(OO3)[C@H]1C | 620 | Activity (Vero [1]): Non-toxic
C[C@H]1C(=O)C[C@H]2[C@@H]1[C@H]1OC(=O)[C@H](C)[C@@]13CC[C@]2(C)OO3 | 270 | 
C[C@@H]1[C@H]2[C@@H](O)[C@@]3([C@@H](C)CO)C=C[C@](C)(OO3)[C@H]2C[C@@H]1O |  | inhibition (Plasmodium falciparum [3]): inactive
C/C=C(/C)C(=O)O[C@H]1C(C)=C2[C@H]([C@@H]1OC(=O)CCCCCCC)[C@@](C)(OC(C)=O)C[C@H](OC(=O)CCC)[C@@]1(O)[C@H]2OC(=O)[C@@]1(C)O [THAPSIGARGIN] |  | Activity (Vero [4]): Toxic
C[C@@H]1[C@H]2[C@H]3OC(=O)[C@H](C)[C@@]34CC[C@](C)(OO4)[C@H]2C[C@@H]1O | 610 | 
CC(=O)OC[C@H](C)[C@]12C=C[C@](C)(OO1)[C@H]1CC(=O)[C@H](C)[C@H]1C2=O | 4600 | 
COc1ccc(CO[C@H]2C[C@H]3[C@@H]([C@H]2C)[C@H]2OC[C@H](C)[C@@]24CC[C@]3(C)OO4)cc1 | 7500 | 
CC(=O)OC[C@H](C)[C@]12C=C[C@](C)(OO1)[C@H]1C[C@H](O)[C@H](C)[C@H]1C2=O |  | inhibition (Plasmodium falciparum [3]): inactive
COc1ccc(CO[C@H]2C[C@H]3[C@@H]([C@H]2C)[C@@H](O)[C@@]2([C@@H](C)CO)C=C[C@]3(C)OO2)cc1 | 9110 | 
C[C@@H]1CC[C@H]2[C@@H](C)C(=O)O[C@@H]3O[C@@]4(C)CC[C@@H]1[C@]32OO4 [ARTEMISININ] | 5 | 
COc1ccc(CO[C@H]2C[C@H]3[C@@H]([C@H]2C)[C@H]2OC(=O)[C@H](C)[C@@]24CC[C@]3(C)OO4)cc1 | 370 | Activity (Vero [1]): Non-toxic
COc1ccc(CO[C@H]2C[C@H]3[C@@H]([C@H]2C)[C@H]2OC(O)[C@H](C)[C@@]24C=C[C@]3(C)OO4)cc1 (some centres not stated) | 1040 | 
COc1ccc(CO[C@H]2C[C@H]3[C@@H]([C@H]2C)[C@H]2OC(O)[C@H](C)[C@@]24CC[C@]3(C)OO4)cc1 (some centres not stated) |  | inhibition (Plasmodium falciparum [3]): inactive
CCO[C@H]1O[C@@H]2[C@@H]3[C@@H](C)[C@@H](OCc4ccc(OC)cc4)C[C@@H]3[C@]3(C)CC[C@]2(OO3)[C@H]1C | 24 | Activity (Vero [1]): Non-toxic
CC(=O)OC[C@H](C)[C@]12C=C[C@](C)(OO1)[C@H]1C[C@H](O)[C@H](C)[C@H]1[C@H]2O |  | inhibition (Plasmodium falciparum [3]): inactive
COc1ccc(CO[C@H]2C[C@H]3[C@@H]([C@H]2C)[C@@H](O)[C@@]2([C@@H](C)COC(C)=O)C=C[C@]3(C)OO2)cc1 |  | inhibition (Plasmodium falciparum [3]): inactive
C[C@@H]1[C@H]2[C@H]3OC[C@H](C)[C@@]34C=C[C@](C)(OO4)[C@H]2C[C@@H]1O | 570 | 

From ChEMBL document CHEMBL1275366, “Design, synthesis, and development of novel guaianolide-endoperoxides as potential antimalarial agents” (J Med Chem, 2010)
